US10986838B2, “Herbicides” (SYNGENTA PARTICIPATIONS AG, priority 2016, dated 2021)

Legend:
Format in all cases: in vivo
[1] = test system: Echinochloa crus-galli (ECHCG); test: Post-emergence herbicidal activity (B2); details: Test B2b, 1000 g/ha, evaluated after 13 days, 5=total damage to plant, 0=no damage to plant
Experimental: (§1) B2 Post-Emergence Herbicidal Activity Seeds of a variety of test species were sown in standard soil in pots: Triticum aestivium (TRZAW), Avena fatua (AVEFA), Alopecurus myosuroides (ALOMY), Echinochloa crus-galli (ECHCG), Lolium perenne (LOLPE), Zea Mays (ZEAMX), Abutilon theophrasti (ABUTH), Amaranthus retroflexus (AMARE) and Setaria faberi (SETFA). After 8 days cultivation (post-emergence) under controlled conditions in a glasshouse (at 24/16° C., day/night; 14 hours light; 65% humidity), the plants were sprayed with an aqueous spray solution derived from the formulation of the technical active ingredient in acetone/water (50:50) solution containing 0.5% Tween 20 (polyoxyethelyene sorbitan monolaurate, CAS RN 9005-64-5). The test plants were then grown in a glasshouse under controlled conditions (at 24/16° C., day/night; 14 hours light; 65% humidity) and watered twice daily. After 13 days, the test was evaluated (5=total damage to plant; 0=no damage to plant). Tables B2a and B2b Control of Weed Species by Compound of Formula (I) after Post-Emergence Application

[2] = test system: Abutilon theophrasti (ABUTH); test: Post-emergence herbicidal activity (B2); details: Test B2b, 1000 g/ha, evaluated after 13 days, 5=total damage to plant, 0=no damage to plant
Experimental: as §1

Setaria faberi (SETFA) [3] = test: Post-emergence herbicidal activity (B2); details: Test B2b, 1000 g/ha, evaluated after 13 days, 5=total damage to plant, 0=no damage to plant
Experimental: as §1

[4] = test system: Amaranthus retroflexus (AMARE); test: Post-emergence herbicidal activity (B2); details: Test B2b, 1000 g/ha, evaluated after 13 days, 5=total damage to plant, 0=no damage to plant
Experimental: as §1

Lolium perenne (LOLPE) [5] = test: Post-emergence herbicidal activity (B2); details: Test B2b, 1000 g/ha, evaluated after 13 days, 5=total damage to plant, 0=no damage to plant
Experimental: as §1

Zea Mays (ZEAMX) [6] = test: Post-emergence herbicidal activity (B2); details: Test B2b, 1000 g/ha, evaluated after 13 days, 5=total damage to plant, 0=no damage to plant
Experimental: as §1

[7] = test system: Echinochloa crus-galli (ECHCG); test: Pre-emergence herbicidal activity (B1); details: Test 1b, 1000 g/ha, evaluated after 13 days, 5=total damage to plant, 0=no damage to plant
Experimental: as §1, with “B1 Pre-Emergence” for “B2 Post-Emergence”, “After” for “After 8 days”, “for one day (pre-emergence)” for “(post-emergence)”, “B1a” for “B2a”, “B1b” for “B2b”, “Pre-Emergence” for “Post-Emergence”

[8] = test system: Abutilon theophrasti (ABUTH); test: Pre-emergence herbicidal activity (B1); details: Test 1b, 1000 g/ha, evaluated after 13 days, 5=total damage to plant, 0=no damage to plant
Experimental: as §1, with “B1 Pre-Emergence” for “B2 Post-Emergence”, “After” for “After 8 days”, “for one day (pre-emergence)” for “(post-emergence)”, “B1a” for “B2a”, “B1b” for “B2b”, “Pre-Emergence” for “Post-Emergence”

Setaria faberi (SETFA) [9] = test: Pre-emergence herbicidal activity (B1); details: Test 1b, 1000 g/ha, evaluated after 13 days, 5=total damage to plant, 0=no damage to plant
Experimental: as §1, with “B1 Pre-Emergence” for “B2 Post-Emergence”, “After” for “After 8 days”, “for one day (pre-emergence)” for “(post-emergence)”, “B1a” for “B2a”, “B1b” for “B2b”, “Pre-Emergence” for “Post-Emergence”

[10] = test system: Amaranthus retroflexus (AMARE); test: Pre-emergence herbicidal activity (B1); details: Test 1b, 1000 g/ha, evaluated after 13 days, 5=total damage to plant, 0=no damage to plant
Experimental: as §1, with “B1 Pre-Emergence” for “B2 Post-Emergence”, “After” for “After 8 days”, “for one day (pre-emergence)” for “(post-emergence)”, “B1a” for “B2a”, “B1b” for “B2b”, “Pre-Emergence” for “Post-Emergence”

Lolium perenne (LOLPE) [11] = test: Pre-emergence herbicidal activity (B1); details: Test 1b, 1000 g/ha, evaluated after 13 days, 5=total damage to plant, 0=no damage to plant
Experimental: as §1, with “B1 Pre-Emergence” for “B2 Post-Emergence”, “After” for “After 8 days”, “for one day (pre-emergence)” for “(post-emergence)”, “B1a” for “B2a”, “B1b” for “B2b”, “Pre-Emergence” for “Post-Emergence”

Zea Mays (ZEAMX) [12] = test: Pre-emergence herbicidal activity (B1); details: Test 1b, 1000 g/ha, evaluated after 13 days, 5=total damage to plant, 0=no damage to plant
Experimental: as §1, with “B1 Pre-Emergence” for “B2 Post-Emergence”, “After” for “After 8 days”, “for one day (pre-emergence)” for “(post-emergence)”, “B1a” for “B2a”, “B1b” for “B2b”, “Pre-Emergence” for “Post-Emergence”

Row | Compound | ECHCG damage score [1] | ABUTH damage score [2] | SETFA damage score (Setaria faberi (SETFA) [3]) | AMARE damage score [4] | LOLPE damage score (Lolium perenne (LOLPE) [5]) | ZEAMX damage score (Zea Mays (ZEAMX) [6]) | ECHCG damage score [7] | ABUTH damage score [8] | SETFA damage score (Setaria faberi (SETFA) [9]) | AMARE damage score [10] | LOLPE damage score (Lolium perenne (LOLPE) [11]) | ZEAMX damage score (Zea Mays (ZEAMX) [12])
1 | Fc1cncc(-c2ccc(NCc3ccccc3)c(C(F)(F)F)n2)c1 [Compound A21] | 1 | 0 | 5 | 1 | 1 | 5 | 3 | 0 | 5 | 1 | 2 | 3
2 | COC(=O)CNc1ccc(-c2cncc(F)c2)nc1C(F)(F)F [Compound A22] | 5 | 2 | 5 | 3 | 4 | 5 | 4 | 0 | 4 | 3 | 2 | 5
3 | Fc1cncc(-c2ccc(NCc3ccc(Cl)cc3)c(C(F)(F)F)n2)c1 [Compound A24] | 3 | 0 | 5 | 0 | 2 | 5 | 2 | 0 | 4 | 0 | 1 | 3
4 | C=CCNc1ccc(-c2cncc(F)c2)nc1C(F)(F)F [Compound A25] | 4 | 0 | 5 | 2 | 3 | 5 | 4 | 0 | 4 | 1 | 2 | 5
5 | Fc1cncc(-c2ccc(NCc3ccc(C(F)(F)F)cc3)c(C(F)(F)F)n2)c1 [Compound A26] | 3 | 0 | 4 | 0 | 2 | 5 | 2 | 0 | 4 | 0 | 0 | 2
6 | CCNc1ccc(-c2cncc(F)c2)nc1C(F)(F)F [Compound A27] | 4 | 0 | 5 | 0 | 4 | 5 | 5 | 0 | 4 | 0 | 2 | 5
7 | Fc1cncc(-c2ccc(NCc3ccc(F)cc3F)c(C(F)(F)F)n2)c1 [Compound A28] | 3 | 0 | 5 | 1 | 2 | 5 | 2 | 0 | 4 | 0 | 0 | 2
8 | Fc1cncc(-c2ccc(NCC3CC3)c(C(F)(F)F)n2)c1 [Compound A29] | 5 | 2 | 5 | 2 | 4 | 5 | 4 | 1 | 5 | 3 | 3 | 5
9 | CC#CCNc1ccc(-c2cncc(F)c2)nc1C(F)(F)F [Compound A30] | 5 | 2 | 5 | 2 | 4 | 5 | 4 | 0 | 5 | 2 | 2 | 5
10 | Fc1ccc(CNc2ccc(-c3cncc(F)c3)nc2C(F)(F)F)cc1 [Compound A31] | 4 | 0 | 5 | 1 | 3 | 5 | 4 | 1 | 5 | 1 | 2 | 4
11 | Fc1cncc(-c2ccc(Nc3ccccc3)c(C(F)(F)F)n2)c1 [Compound A32, 6-(5-fluoro-3-pyridyl)-N-phenyl-2-(trifluoromethyl)pyridin-3-amine] | 4 | 0 | 5 | 0 | 3 | 4 | 4 | 1 | 5 | 1 | 1 | 1
12 | Nc1ccc(-c2cncc(F)c2)nc1C(F)(F)F [Compound A33, 6-(5-fluoro-3-pyridyl)-2-(trifluoromethyl)pyridin-3-amine] | 3 | 1 | 5 | 2 | 3 | 5 | 2 | 0 | 4 | 1 | 2 | 4
13 | CNc1ccc(-c2cncnc2)nc1C(F)(F)F [Compound A34] | 5 | 1 | 5 | 2 | 3 | 5 | 4 | 0 | 4 | 1 | 3 | 4
14 | Nc1ccc(-c2cncnc2)nc1C(F)(F)F [Compound A35, 6-pyrimidin-5-yl-2-(trifluoromethyl)pyridin-3-amine] | 4 | 1 | 5 | 2 | 4 | 5 | 3 | 0 | 4 | 1 | 2 | 5
15 | Cc1nc(-c2cccnc2)ccc1N [Compound A36] | 1 | 0 | 2 | 1 | 1 | 2 | 0 | 1 | 1 | 1 | 0 | 0
